Target: T1, TRPV3 (hTRPV3, transient receptor potential vanilloid 3) (Homo sapiens, UniProt Q8NET8)
T1 construct: hTRPV3 (NM_145068.4)
T1 sequence (Q8NET8 1-790): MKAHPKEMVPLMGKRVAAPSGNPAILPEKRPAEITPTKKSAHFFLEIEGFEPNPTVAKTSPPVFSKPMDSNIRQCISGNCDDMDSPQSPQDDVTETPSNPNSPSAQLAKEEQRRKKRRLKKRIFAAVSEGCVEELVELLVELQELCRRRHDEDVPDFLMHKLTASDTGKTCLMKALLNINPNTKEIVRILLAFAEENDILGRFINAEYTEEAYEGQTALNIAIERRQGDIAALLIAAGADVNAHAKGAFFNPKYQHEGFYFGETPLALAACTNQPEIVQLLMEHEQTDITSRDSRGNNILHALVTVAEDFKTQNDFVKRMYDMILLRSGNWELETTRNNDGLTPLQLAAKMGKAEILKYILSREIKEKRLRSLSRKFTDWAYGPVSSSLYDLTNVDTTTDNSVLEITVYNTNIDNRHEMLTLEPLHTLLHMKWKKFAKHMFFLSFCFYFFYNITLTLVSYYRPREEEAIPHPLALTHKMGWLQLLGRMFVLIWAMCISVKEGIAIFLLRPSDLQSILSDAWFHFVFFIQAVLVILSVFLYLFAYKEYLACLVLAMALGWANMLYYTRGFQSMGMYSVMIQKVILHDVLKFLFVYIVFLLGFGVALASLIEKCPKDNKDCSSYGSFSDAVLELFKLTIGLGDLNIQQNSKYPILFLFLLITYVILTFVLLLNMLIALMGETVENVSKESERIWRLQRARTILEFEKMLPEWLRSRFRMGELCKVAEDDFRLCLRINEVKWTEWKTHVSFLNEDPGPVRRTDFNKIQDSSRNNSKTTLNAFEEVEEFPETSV
Assay: whole-cell and inside-out single-channel patch clamp in HEK293T cells; site-directed mutagenesis
Assay type: cell-based

C[C@@H]1O[C@@H](O[C@@H]2[C@@H](O)[C@H](OCCc3ccc(O)c(O)c3)O[C@H](CO[C@@H]3O[C@H](CO)[C@@H](O)[C@H](O)[C@H]3O)[C@H]2OC(=O)/C=C/c2ccc(O)c(O)c2)[C@H](O)[C@H](O)[C@H]1O [echinacoside]
IC50: 21.9 ± 1.28 µM
